The supplement of paper PMC12463676, “Small-molecule dissolution of stress granules by redox modulation benefits ALS models” (Nature Chemical Biology, 2025)

What was measured:
[1] = compound: NC(=O)CCCCC1CCSS1 [lipoamide]; assay: thermal stability z-score vs DMSO; higher = more thermally stabilized by treatment; details: HeLa, lipoamide concentration 100 µM
Method: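 Cellular thermal proteome profiling in HeLa cells. Cells were treated with 100 µM lipoamide for 1 h, with or without 1 mM arsenate for a further 1 h, then heated to ten temperatures (37-66.3 °C), and soluble protein was quantified by TMT mass spectrometry relative to 0.1% DMSO controls. The thermal stability score (sum of log2 fold changes minus the abundance score) was transformed to a z-score; mean of n = 3 experiments.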

[2] = compound: O=[As]([O-])(O)O.[K+] [potassium arsenate]; assay: as above; details: HeLa; arsenate concentration 1 mM
Method: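 Cellular thermal proteome profiling in HeLa cells treated with 1 mM arsenate for 1 h (DMSO pretreatment), heated to ten temperatures (37-66.3 °C). Soluble protein was quantified by TMT mass spectrometry relative to DMSO controls; the thermal stability score was transformed to a z-score; mean of n = 3 experiments.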

[3] = arsenate co-treatment: 1 mM arsenate 1 h
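Also: each temperature applied for 3 min, abundance score taken as mean log2 fold change at the two lowest temperatures, z-score obtained by mean subtraction and division by SD.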

UniProt Q6N069, sequence (Q6N069 whole entry): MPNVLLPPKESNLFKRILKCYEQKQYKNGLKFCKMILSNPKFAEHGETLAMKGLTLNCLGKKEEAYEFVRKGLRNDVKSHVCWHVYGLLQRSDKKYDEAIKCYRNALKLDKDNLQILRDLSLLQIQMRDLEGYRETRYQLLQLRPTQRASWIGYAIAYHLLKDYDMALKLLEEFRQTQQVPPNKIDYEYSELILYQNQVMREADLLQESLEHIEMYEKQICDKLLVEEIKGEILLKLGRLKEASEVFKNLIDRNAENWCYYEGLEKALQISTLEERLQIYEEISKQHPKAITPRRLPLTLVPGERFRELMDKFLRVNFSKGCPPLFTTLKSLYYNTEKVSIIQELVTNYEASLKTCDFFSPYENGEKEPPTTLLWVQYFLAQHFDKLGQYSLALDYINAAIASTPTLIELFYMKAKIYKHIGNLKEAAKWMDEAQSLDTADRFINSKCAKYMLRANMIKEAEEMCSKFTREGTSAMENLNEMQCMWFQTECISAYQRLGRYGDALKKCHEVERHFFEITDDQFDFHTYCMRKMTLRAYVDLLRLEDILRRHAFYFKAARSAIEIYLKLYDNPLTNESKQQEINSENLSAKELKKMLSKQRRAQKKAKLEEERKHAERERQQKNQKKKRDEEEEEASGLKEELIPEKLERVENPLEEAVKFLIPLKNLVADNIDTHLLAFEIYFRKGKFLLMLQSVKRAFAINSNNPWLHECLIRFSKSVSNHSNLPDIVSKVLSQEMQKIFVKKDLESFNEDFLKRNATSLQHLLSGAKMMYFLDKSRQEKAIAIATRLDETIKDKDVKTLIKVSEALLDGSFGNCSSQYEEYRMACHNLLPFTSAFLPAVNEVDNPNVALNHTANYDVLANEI
UniProt O95394, sequence (O95394 whole entry): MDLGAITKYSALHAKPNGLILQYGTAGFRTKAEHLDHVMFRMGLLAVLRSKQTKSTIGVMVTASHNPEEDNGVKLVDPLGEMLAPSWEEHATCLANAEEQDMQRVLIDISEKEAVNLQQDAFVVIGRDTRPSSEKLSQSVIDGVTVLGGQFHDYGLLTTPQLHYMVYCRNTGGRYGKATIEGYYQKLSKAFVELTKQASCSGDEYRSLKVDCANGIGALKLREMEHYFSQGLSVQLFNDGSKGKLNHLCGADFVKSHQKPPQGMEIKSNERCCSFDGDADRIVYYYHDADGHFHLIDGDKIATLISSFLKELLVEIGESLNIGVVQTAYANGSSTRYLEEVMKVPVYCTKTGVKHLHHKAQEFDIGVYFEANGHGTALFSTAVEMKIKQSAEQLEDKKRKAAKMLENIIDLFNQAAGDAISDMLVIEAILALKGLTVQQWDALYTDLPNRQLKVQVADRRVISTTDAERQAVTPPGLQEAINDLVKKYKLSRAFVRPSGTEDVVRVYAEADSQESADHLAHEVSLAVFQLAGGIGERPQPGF
UniProt Q12768, sequence (Q12768 whole entry): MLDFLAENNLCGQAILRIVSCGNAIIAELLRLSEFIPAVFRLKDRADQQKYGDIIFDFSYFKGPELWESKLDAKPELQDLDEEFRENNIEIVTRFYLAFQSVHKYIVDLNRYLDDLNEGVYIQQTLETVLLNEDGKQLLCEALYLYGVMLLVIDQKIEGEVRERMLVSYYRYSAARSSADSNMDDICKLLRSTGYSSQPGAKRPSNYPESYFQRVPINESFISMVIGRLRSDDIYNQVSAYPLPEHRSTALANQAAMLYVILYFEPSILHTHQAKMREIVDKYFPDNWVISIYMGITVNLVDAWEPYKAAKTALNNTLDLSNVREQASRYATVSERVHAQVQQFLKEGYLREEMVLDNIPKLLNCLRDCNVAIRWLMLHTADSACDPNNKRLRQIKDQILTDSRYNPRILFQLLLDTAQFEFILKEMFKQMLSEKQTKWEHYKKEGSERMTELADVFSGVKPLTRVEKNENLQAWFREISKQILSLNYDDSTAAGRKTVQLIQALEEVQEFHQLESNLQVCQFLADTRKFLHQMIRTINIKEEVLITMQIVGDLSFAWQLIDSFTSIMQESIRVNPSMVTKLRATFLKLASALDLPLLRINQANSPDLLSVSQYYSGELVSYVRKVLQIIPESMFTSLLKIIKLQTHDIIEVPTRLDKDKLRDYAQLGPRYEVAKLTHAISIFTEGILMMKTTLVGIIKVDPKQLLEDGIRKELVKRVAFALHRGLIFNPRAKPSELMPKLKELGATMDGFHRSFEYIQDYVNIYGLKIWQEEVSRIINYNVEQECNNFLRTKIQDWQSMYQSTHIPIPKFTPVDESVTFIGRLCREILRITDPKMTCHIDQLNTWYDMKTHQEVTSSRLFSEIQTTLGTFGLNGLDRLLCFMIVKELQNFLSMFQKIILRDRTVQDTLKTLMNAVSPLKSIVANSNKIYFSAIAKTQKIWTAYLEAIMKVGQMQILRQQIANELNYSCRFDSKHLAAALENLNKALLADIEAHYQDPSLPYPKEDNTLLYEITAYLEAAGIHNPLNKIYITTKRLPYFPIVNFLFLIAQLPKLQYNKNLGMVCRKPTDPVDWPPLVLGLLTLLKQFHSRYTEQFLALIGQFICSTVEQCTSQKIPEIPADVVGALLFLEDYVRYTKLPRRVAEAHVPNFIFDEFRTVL
UniProt Q9BW91, sequence (Q9BW91 whole entry): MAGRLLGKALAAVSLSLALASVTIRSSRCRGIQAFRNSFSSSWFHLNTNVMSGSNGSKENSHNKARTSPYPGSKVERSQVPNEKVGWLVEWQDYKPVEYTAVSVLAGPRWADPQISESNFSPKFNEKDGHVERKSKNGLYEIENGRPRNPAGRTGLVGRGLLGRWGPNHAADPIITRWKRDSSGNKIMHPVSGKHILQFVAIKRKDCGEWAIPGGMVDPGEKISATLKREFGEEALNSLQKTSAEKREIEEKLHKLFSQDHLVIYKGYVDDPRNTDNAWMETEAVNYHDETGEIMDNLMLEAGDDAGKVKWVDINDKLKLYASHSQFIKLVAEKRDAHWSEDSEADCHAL
UniProt Q13243, sequence (Q13243 whole entry): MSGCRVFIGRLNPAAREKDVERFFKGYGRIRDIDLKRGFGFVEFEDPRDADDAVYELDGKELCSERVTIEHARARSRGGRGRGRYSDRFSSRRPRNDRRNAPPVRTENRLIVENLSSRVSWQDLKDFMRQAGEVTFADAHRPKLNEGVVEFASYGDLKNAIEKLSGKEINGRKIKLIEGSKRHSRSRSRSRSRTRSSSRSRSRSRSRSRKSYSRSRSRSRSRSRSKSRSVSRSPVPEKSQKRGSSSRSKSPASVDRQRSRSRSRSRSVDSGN
UniProt O60231, sequence (O60231 whole entry): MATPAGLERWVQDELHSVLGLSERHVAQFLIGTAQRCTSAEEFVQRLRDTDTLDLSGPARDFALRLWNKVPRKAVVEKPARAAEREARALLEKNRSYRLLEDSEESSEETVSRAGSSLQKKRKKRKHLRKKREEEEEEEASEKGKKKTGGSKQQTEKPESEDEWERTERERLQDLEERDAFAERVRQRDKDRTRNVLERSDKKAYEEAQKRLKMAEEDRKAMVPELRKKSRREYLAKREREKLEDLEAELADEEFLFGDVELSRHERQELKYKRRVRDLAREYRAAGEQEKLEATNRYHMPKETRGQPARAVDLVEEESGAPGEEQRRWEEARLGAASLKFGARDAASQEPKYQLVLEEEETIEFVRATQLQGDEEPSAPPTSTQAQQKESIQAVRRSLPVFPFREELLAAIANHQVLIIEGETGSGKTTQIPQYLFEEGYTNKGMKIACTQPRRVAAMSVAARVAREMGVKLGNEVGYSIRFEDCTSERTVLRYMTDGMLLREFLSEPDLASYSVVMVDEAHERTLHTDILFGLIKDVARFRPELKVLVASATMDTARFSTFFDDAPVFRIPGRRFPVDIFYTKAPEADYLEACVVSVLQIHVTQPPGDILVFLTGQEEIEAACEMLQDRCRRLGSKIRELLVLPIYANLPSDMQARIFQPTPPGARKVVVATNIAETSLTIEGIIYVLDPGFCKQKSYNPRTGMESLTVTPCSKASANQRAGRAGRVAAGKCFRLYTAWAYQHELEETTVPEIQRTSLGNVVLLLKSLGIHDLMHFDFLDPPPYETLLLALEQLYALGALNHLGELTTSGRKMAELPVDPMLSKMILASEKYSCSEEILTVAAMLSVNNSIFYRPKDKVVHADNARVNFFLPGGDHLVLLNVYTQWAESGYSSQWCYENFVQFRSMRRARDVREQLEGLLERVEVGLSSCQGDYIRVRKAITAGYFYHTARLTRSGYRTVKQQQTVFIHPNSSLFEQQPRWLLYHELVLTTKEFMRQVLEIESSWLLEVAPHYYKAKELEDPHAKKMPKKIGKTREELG
UniProt Q9BT73, sequence (Q9BT73 whole entry): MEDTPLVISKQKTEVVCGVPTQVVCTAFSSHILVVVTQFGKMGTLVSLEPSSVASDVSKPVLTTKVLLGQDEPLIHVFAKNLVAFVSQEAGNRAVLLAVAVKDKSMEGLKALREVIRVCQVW
UniProt Q8NHH9, sequence (Q8NHH9 whole entry): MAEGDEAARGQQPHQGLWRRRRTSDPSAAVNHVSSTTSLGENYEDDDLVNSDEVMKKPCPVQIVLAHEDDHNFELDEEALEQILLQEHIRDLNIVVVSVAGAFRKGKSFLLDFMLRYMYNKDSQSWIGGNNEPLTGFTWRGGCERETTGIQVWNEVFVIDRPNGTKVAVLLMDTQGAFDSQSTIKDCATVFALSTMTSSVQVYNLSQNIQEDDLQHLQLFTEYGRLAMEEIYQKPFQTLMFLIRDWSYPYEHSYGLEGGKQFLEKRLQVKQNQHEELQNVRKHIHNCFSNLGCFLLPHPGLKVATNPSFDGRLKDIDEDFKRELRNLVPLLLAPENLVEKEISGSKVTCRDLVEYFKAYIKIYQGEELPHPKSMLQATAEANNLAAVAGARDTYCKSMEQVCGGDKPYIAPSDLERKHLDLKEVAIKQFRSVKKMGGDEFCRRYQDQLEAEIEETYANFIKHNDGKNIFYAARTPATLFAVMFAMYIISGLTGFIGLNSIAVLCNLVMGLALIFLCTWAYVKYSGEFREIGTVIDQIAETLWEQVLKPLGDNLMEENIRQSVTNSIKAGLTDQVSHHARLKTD
UniProt Q8NHZ8, sequence (Q8NHZ8 whole entry): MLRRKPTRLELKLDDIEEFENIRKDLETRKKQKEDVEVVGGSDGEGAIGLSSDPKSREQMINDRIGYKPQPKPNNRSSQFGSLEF

Target	thermal stability z-score [1, 3]	thermal stability z-score ([1]; arsenate co-treatment: none)	thermal stability z-score [2]
C5ORF51 (UniProt A6NDU8)	-1	-0.695	-0.796
ATM (UniProt Q13315)	0.678	-0.445	0.00628
TMEM41A (UniProt Q96HV5)	0.652	0.936	0.885
KIAA0196 (UniProt Q12768)	-0.101	0.0446	0.0921
NAA16 (UniProt Q6N069)	0.378	0.394	-0.173
MRPL9 (UniProt Q9BYD2)	-0.106	0.203	0.232
CDC26 (UniProt Q8NHZ8)	1.32	0.534	0.691
RPAP3 (UniProt Q9H6T3)	-0.367	-0.207	0.38
MGAT1 (UniProt P26572)	-0.313	-0.685	-0.0516
C9ORF85 (UniProt Q96MD7)	0.0672	1.62	0.132
ATP6V0A1 (UniProt Q93050)	0.0809	0.332	0.705
PSMD2 (UniProt Q13200)	-0.29	-0.343	-0.333
DHX32 (UniProt Q7L7V1)	-1.73	-1.67	0.629
PGM3 (UniProt O95394)	0.0643	-0.0248	0.188
SMARCA2 (UniProt P51531)	-0.0738	-0.0901	-0.174
TNK1 (UniProt Q13470)	0.0556	0.223	-0.0895
LANCL1 (UniProt O43813)	0.232	0.164	0.0783
GINS3 (UniProt Q9BRX5)	0.275	-0.19	-0.288
MRPL15 (UniProt Q9P015)	-0.144	-0.0219	-0.33
COL12A1 (UniProt Q99715)	-3.01	-2.92	0.59
SLC4A2 (UniProt P04920)	0.115	0.433	0.173
LPCAT2 (UniProt Q7L5N7)	-0.337	0.245	0.944
TSC22D2 (UniProt O75157)	1.54	0.0633	1.16
ZCCHC8 (UniProt Q6NZY4)	0.464	0.344	-0.318
PPIL2 (UniProt Q13356)	0.057	-0.0266	-0.223
R3HCC1L (UniProt Q7Z5L2)	0.00414	0.282	0.0177
ACAA2 (UniProt P42765)	0.0666	0.0527	-0.24
SRSF5 (UniProt Q13243)	0.765	0.508	-1.82

Target	thermal stability z-score [1, 3]	thermal stability z-score ([1]; arsenate co-treatment: none)	thermal stability z-score [2]
ADD1 (UniProt P35611)	-0.281	-0.308	-0.913
LNP (UniProt Q9C0E8)	-1.09	-0.771	-0.997
THOP1 (UniProt P52888)	-0.0659	-0.212	-0.915
LIAS (UniProt O43766)	1.93	3.09	-2.31
NPR3 (UniProt P17342)	0.2	-0.339	-0.486
CCSMST1 (UniProt Q4G0I0)	2.5	2.37	0.624
C11ORF31|SELH	0.115	0.162	-0.153
TOR3A (UniProt Q9H497)	-1.02	-0.712	0.553
NUP133 (UniProt Q8WUM0)	-0.312	-0.456	-0.139
PSMG3 (UniProt Q9BT73)	0.436	-0.0166	0.28
DPH2 (UniProt Q9BQC3)	-0.0475	-0.355	-1.17
ATL2 (UniProt Q8NHH9)	-0.223	-0.0585	0.103
NOCT (UniProt Q9UK39)	-0.088	-0.117	0.112
EPN2 (UniProt O95208)	1.13	0.804	-0.0882
RPL28 (UniProt P46779)	0.57	0.375	-0.548
ABCC1 (UniProt P33527)	0.473	0.0236	-0.579
MORF4L2 (UniProt Q15014)	-0.451	-0.148	-0.58
OVCA2 (UniProt Q8WZ82)	-0.0187	0.0328	-0.0892
FHOD1 (UniProt Q9Y613)	-0.261	-0.0798	0.2
DHX16 (UniProt O60231)	-0.223	0.345	-1.81
NUDT9 (UniProt Q9BW91)	-0.674	-0.346	0.0652
MARK3 (UniProt P27448)	-0.0834	-0.0843	-0.0953
HNRNPA2B1 (UniProt P22626)	0.93	0.512	0.0566
CWF19L2 (UniProt Q2TBE0)	0.0402	-0.0633	-0.098
VCPIP1 (UniProt Q96JH7)	-0.216	-0.156	-0.233
SMU1 (UniProt Q2TAY7)	-0.141	-0.0867	0.656
HK2 (UniProt P52789)	-0.636	-0.168	0.715
